How the values were obtained:
Assay in all cases: viability relative to DMSO control (fraction); higher = less drug effect (more viable cells)
Settings in all cases: 48 h
[1] = system: primary AML patient cells (S081)
How it was run: (§1)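 Primary mononuclear tumour cells (Ficoll-isolated from blood or bone marrow, or processed lymph node; fresh or cryopreserved) were plated at 4 × 10^4 cells per well in 384-well plates with pre-plated compounds at five concentrations, one well each. Medium was RPMI-1640 with penicillin/streptomycin, L-glutamine and human serum, at 37 °C and 5% CO2 for 48 h. Viability was read as CellTiter-Glo luminescence relative to the median of 16 inner DMSO wells.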

[2] = system: primary CLL patient cells (S043)
How it was run: as §1

[3] = system: primary AML patient cells (S006)
How it was run: as §1

[4] = system: primary FL patient cells (S022)
How it was run: as §1

[5] = system: primary AML patient cells (S085)
How it was run: as §1

[6] = system: primary CLL patient cells (S031)
How it was run: as §1

[7] = system: primary AML patient cells (S021)
How it was run: as §1

[8] = system: primary MCL patient cells (S068)
How it was run: as §1

[9] = system: primary ALL patient cells (S048)
How it was run: as §1

[10] = system: primary AML patient cells (S060)
How it was run: as §1

[11] = system: primary AML patient cells (S056)
How it was run: as §1

[12] = system: primary AML patient cells (S012)
How it was run: as §1

[13] = system: primary B-PLL patient cells (S016)
How it was run: as §1

[14] = system: primary AML patient cells (S011)
How it was run: as §1

[15] = system: primary ALL patient cells (S088)
How it was run: as §1

[16] = system: primary MCL patient cells (S053)
How it was run: as §1

[17] = system: primary FL patient cells (S087)
How it was run: as §1

[18] = system: primary MCL patient cells (S063)
How it was run: as §1

[19] = system: primary AML patient cells (S017)
How it was run: as §1

[20] = system: primary BL patient cells (S005)
How it was run: as §1

Compound CC(C)c1cc(-c2n[nH]c(=O)n2-c2ccc3c(ccn3C)c2)c(O)cc1O [Ganetespib] has a viability ([1]; 0.0032 µM) of 0.981, a viability ([1]; 0.016 µM) of 0.674 and a viability ([1]; 0.08 µM) of 0.0862. The viability ([1]; 0.4 µM) was 0.0773, the viability ([1]; 2 µM) was 0.0742 and the viability ([2]; 0.0032 µM) was 0.928. The viability ([2]; 0.016 µM) was 0.917, the viability ([2]; 0.08 µM) was 0.637 and the viability ([2]; 0.4 µM) was 0.535. For the same compound, the viability ([2]; 2 µM) was 0.521, the viability ([3]; 0.0032 µM) was 0.846 and the viability ([3]; 0.016 µM) was 0.154. For the same compound, the viability ([3]; 0.08 µM) was 0.134, the viability ([3]; 0.4 µM) was 0.198 and the viability ([3]; 2 µM) was 0.186. For the same compound, the viability ([4]; 0.0032 µM) was 0.919, the viability ([4]; 0.016 µM) was 0.865 and the viability ([4]; 0.08 µM) was 0.833. The viability ([4]; 0.4 µM) was 0.764, the viability ([4]; 2 µM) was 0.727 and the viability ([5]; 0.0032 µM) was 0.973. The viability ([5]; 0.016 µM) was 0.648, the viability ([5]; 0.08 µM) was 0.195 and the viability ([5]; 0.4 µM) was 0.251. For the same compound, the viability ([5]; 2 µM) was 0.264, the viability ([6]; 0.0032 µM) was 0.998 and the viability ([6]; 0.016 µM) was 0.873. It also gave a viability ([6]; 0.08 µM) of 0.324, a viability ([6]; 0.4 µM) of 0.267 and a viability ([6]; 2 µM) of 0.256. The viability ([7]; 0.0032 µM) was 0.917, the viability ([7]; 0.016 µM) was 0.742 and the viability ([7]; 0.08 µM) was 0.53. For the same compound, the viability ([7]; 0.4 µM) was 0.637, the viability ([7]; 2 µM) was 0.617 and the viability ([8]; 0.0032 µM) was 1.02. It also gave a viability ([8]; 0.016 µM) of 1.13, a viability ([8]; 0.08 µM) of 0.532 and a viability ([8]; 0.4 µM) of 0.535. It also gave a viability ([8]; 2 µM) of 0.545, a viability ([9]; 0.0032 µM) of 0.9 and a viability ([9]; 0.016 µM) of 0.632. For the same compound, the viability ([9]; 0.08 µM) was 0.517, the viability ([9]; 0.4 µM) was 0.48 and the viability ([9]; 2 µM) was 0.453. For the same compound, the viability ([10]; 0.0032 µM) was 0.97, the viability ([10]; 0.016 µM) was 1.05 and the viability ([10]; 0.08 µM) was 0.154. The viability ([10]; 0.4 µM) was 0.118, the viability ([10]; 2 µM) was 0.107 and the viability ([11]; 0.0032 µM) was 0.705. For the same compound, the viability ([11]; 0.016 µM) was 0.203, the viability ([11]; 0.08 µM) was 0.137 and the viability ([11]; 0.4 µM) was 0.176. The viability ([11]; 2 µM) was 0.169, the viability ([12]; 0.0032 µM) was 0.991 and the viability ([12]; 0.016 µM) was 0.964. The viability ([12]; 0.08 µM) was 0.131, the viability ([12]; 0.4 µM) was 0.126 and the viability ([12]; 2 µM) was 0.121. It also gave a viability ([13]; 0.0032 µM) of 1.03, a viability ([13]; 0.016 µM) of 0.967 and a viability ([13]; 0.08 µM) of 0.569. It also gave a viability ([13]; 0.4 µM) of 0.552, a viability ([13]; 2 µM) of 0.514 and a viability ([14]; 0.0032 µM) of 1.13. It also gave a viability ([14]; 0.016 µM) of 0.778, a viability ([14]; 0.08 µM) of 0.624 and a viability ([14]; 0.4 µM) of 0.684. It also gave a viability ([14]; 2 µM) of 0.644, a viability ([15]; 0.0032 µM) of 0.823 and a viability ([15]; 0.016 µM) of 0.425. For the same compound, the viability ([15]; 0.08 µM) was 0.274, the viability ([15]; 0.4 µM) was 0.259 and the viability ([15]; 2 µM) was 0.267. For the same compound, the viability ([16]; 0.0032 µM) was 0.941, the viability ([16]; 0.016 µM) was 0.809 and the viability ([16]; 0.08 µM) was 0.326. For the same compound, the viability ([16]; 0.4 µM) was 0.332, the viability ([16]; 2 µM) was 0.325 and the viability ([17]; 0.0032 µM) was 1.01. For the same compound, the viability ([17]; 0.016 µM) was 1.01, the viability ([17]; 0.08 µM) was 0.853 and the viability ([17]; 0.4 µM) was 0.881. For the same compound, the viability ([17]; 2 µM) was 0.848, the viability ([18]; 0.0032 µM) was 1 and the viability ([18]; 0.016 µM) was 1.05. For the same compound, the viability ([18]; 0.08 µM) was 0.136, the viability ([18]; 0.4 µM) was 0.0898 and the viability ([18]; 2 µM) was 0.0823. The viability ([19]; 0.0032 µM) was 1.07, the viability ([19]; 0.016 µM) was 0.996 and the viability ([19]; 0.08 µM) was 0.371. It also gave a viability ([19]; 0.4 µM) of 0.326, a viability ([19]; 2 µM) of 0.31 and a viability ([20]; 0.0032 µM) of 0.871. For the same compound, the viability ([20]; 0.016 µM) was 0.871, the viability ([20]; 0.08 µM) was 0.637 and the viability ([20]; 0.4 µM) was 0.725. It also gave a viability ([20]; 2 µM) of 0.716.

CCc1nc(C(N)=O)c(Nc2ccc(N3CCC(N4CCN(C)CC4)CC3)c(OC)c2)nc1NC1CCOCC1 [Gilteritinib] showed a viability ([1]; 0.024 µM) of 0.968, a viability ([1]; 0.12 µM) of 0.969 and a viability ([1]; 0.6 µM) of 0.947. It also gave a viability ([1]; 3 µM) of 0.708, a viability ([1]; 15 µM) of 0.599 and a viability ([2]; 0.024 µM) of 1.04. For the same compound, the viability ([2]; 0.12 µM) was 1.01, the viability ([2]; 0.6 µM) was 0.7 and the viability ([2]; 3 µM) was 0.519. For the same compound, the viability ([2]; 15 µM) was 0.393, the viability ([3]; 0.024 µM) was 0.393 and the viability ([3]; 0.12 µM) was 0.381. It also gave a viability ([3]; 0.6 µM) of 0.382, a viability ([3]; 3 µM) of 0.729 and a viability ([3]; 15 µM) of 0.563. The viability ([4]; 0.024 µM) was 1.01, the viability ([4]; 0.12 µM) was 0.925 and the viability ([4]; 0.6 µM) was 0.907. For the same compound, the viability ([4]; 3 µM) was 0.789, the viability ([4]; 15 µM) was 0.358 and the viability ([5]; 0.024 µM) was 1.02. It also gave a viability ([5]; 0.12 µM) of 0.98, a viability ([5]; 0.6 µM) of 0.741 and a viability ([5]; 3 µM) of 0.781. It also gave a viability ([5]; 15 µM) of 0.756, a viability ([6]; 0.024 µM) of 1.13 and a viability ([6]; 0.12 µM) of 1. It also gave a viability ([6]; 0.6 µM) of 0.785, a viability ([6]; 3 µM) of 0.791 and a viability ([6]; 15 µM) of 0.188. For the same compound, the viability ([7]; 0.024 µM) was 1.04, the viability ([7]; 0.12 µM) was 1.07 and the viability ([7]; 0.6 µM) was 0.72. The viability ([7]; 3 µM) was 0.754, the viability ([7]; 15 µM) was 0.736 and the viability ([8]; 0.024 µM) was 1.63. It also gave a viability ([8]; 0.12 µM) of 2, a viability ([8]; 0.6 µM) of 1.89 and a viability ([8]; 3 µM) of 1.27. For the same compound, the viability ([8]; 15 µM) was 0.689, the viability ([9]; 0.024 µM) was 0.876 and the viability ([9]; 0.12 µM) was 0.819. The viability ([9]; 0.6 µM) was 0.646, the viability ([9]; 3 µM) was 0.717 and the viability ([9]; 15 µM) was 0.531. It also gave a viability ([10]; 0.024 µM) of 1, a viability ([10]; 0.12 µM) of 1.06 and a viability ([10]; 0.6 µM) of 0.965. The viability ([10]; 3 µM) was 0.663, the viability ([10]; 15 µM) was 0.428 and the viability ([11]; 0.024 µM) was 0.404. The viability ([11]; 0.12 µM) was 0.385, the viability ([11]; 0.6 µM) was 0.339 and the viability ([11]; 3 µM) was 0.497. The viability ([11]; 15 µM) was 0.644, the viability ([12]; 0.024 µM) was 0.956 and the viability ([12]; 0.12 µM) was 0.97. For the same compound, the viability ([12]; 0.6 µM) was 1, the viability ([12]; 3 µM) was 0.972 and the viability ([12]; 15 µM) was 0.928. It also gave a viability ([13]; 0.024 µM) of 0.818, a viability ([13]; 0.12 µM) of 0.819 and a viability ([13]; 0.6 µM) of 0.875. For the same compound, the viability ([13]; 3 µM) was 0.911, the viability ([13]; 15 µM) was 0.654 and the viability ([14]; 0.024 µM) was 0.834. The viability ([14]; 0.12 µM) was 0.755, the viability ([14]; 0.6 µM) was 0.617 and the viability ([14]; 3 µM) was 0.841. The viability ([14]; 15 µM) was 0.796, the viability ([15]; 0.024 µM) was 0.698 and the viability ([15]; 0.12 µM) was 0.545. The viability ([15]; 0.6 µM) was 0.388, the viability ([15]; 3 µM) was 0.414 and the viability ([15]; 15 µM) was 0.131. For the same compound, the viability ([16]; 0.024 µM) was 1.07, the viability ([16]; 0.12 µM) was 1.02 and the viability ([16]; 0.6 µM) was 0.7. For the same compound, the viability ([16]; 3 µM) was 0.707, the viability ([16]; 15 µM) was 0.733 and the viability ([17]; 0.024 µM) was 1.09. For the same compound, the viability ([17]; 0.12 µM) was 1.06, the viability ([17]; 0.6 µM) was 0.865 and the viability ([17]; 3 µM) was 0.807. For the same compound, the viability ([17]; 15 µM) was 0.422, the viability ([18]; 0.024 µM) was 1.11 and the viability ([18]; 0.12 µM) was 1.13. For the same compound, the viability ([18]; 0.6 µM) was 0.706, the viability ([18]; 3 µM) was 0.42 and the viability ([18]; 15 µM) was 0.209. For the same compound, the viability ([19]; 0.024 µM) was 0.987, the viability ([19]; 0.12 µM) was 1.09 and the viability ([19]; 0.6 µM) was 0.606. It also gave a viability ([19]; 3 µM) of 0.5, a viability ([19]; 15 µM) of 0.47 and a viability ([20]; 0.024 µM) of 0.957. It also gave a viability ([20]; 0.12 µM) of 0.96, a viability ([20]; 0.6 µM) of 0.739 and a viability ([20]; 3 µM) of 0.667. The viability ([20]; 15 µM) was 0.536.

— the supplement of paper PMC10733146
